PMC6941357, “An in vitro toolbox to accelerate anti-malarial drug discovery and development” (Malaria Journal, 2020)
≈ marks a conversion by molar mass, not a printed value.

Legend:
[1] = Ionization constants by potentiometric titration; assay type: physicochemical; conditions: mean ± SD, n = 3 titrations; for pKa: aqueous solution (DMSO stock diluted 1:10 with water), read-out: Measured pKa
Procedure: The autotitrator was controlled by Tiamo software (Version 1.3). pH measurements were conducted using a Metrohm LL Micro glass electrode which was calibrated on the day of use with calibration standards at pH 2, 4, 7 and 10. All reagents were standardized (directly or indirectly) against potassium hydrogen phthalate (Sigma-Aldrich, A.C.S. Acidimetric Standard). Titrant solutions were protected from carbon dioxide absorption by flushing with nitrogen before sealing or by the incorporation of a drying tube filled with self-indicating soda lime into the titration reaction vessel set-up.
Aliquots were introduced directly into the titration vessel and diluted 1:10 with water (typical final compound concentration of 0.5 mM).

[2] = Bidirectional permeability across Caco-2 cell monolayers; conditions: human
Outline: (§1)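 Transport run in both directions with either HBSS/20 mM HEPES pH 7.4 or human plasma in apical and basolateral chambers, 0.1% v/v DMSO in donor. Donor and acceptor samples quantified by LC–MS; Papp and mass balance calculated, with plasma Papp corrected for donor fraction unbound. Efflux ratio = mean B–A/A–B Papp.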

[3] = Solubility limited absorbable dose (SLAD) calculation with predicted human jejunal Peff; conditions: for solubility: FaSSIF; for An (absorption number): Peff × tres/R, minimum 1; for Permeability classification: based on ref 80 and control compounds; for Predicted human Peff: from Caco-2 Papp via calibration plot; for Ssi (estimated solubility in the small intestine): based on measured FaSSIF solubility
From the text: Predicted Peff values were obtained from a calibration plot of literature Peff values vs measured Caco-2 Papp using either buffer or plasma as the transport medium (see Results section).

[4] = Binding to human liver microsomes via ultracentrifugation; assay type: in vitro ADME; conditions: human, liver microsomes, pH 7.4, 0.4 mg/mL protein, read-out: Fraction unbound, HLM
Outline: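 Unbound fraction by ultracentrifugation: Cunbound measured in protein-free supernate, Ctotal from spiked tubes held at 37 °C, sampled at start and end to check degradation. Matrix was 0.4 mg/mL human liver microsomal protein, 0.1 M phosphate pH 7.4; matrix-matched analysis against one calibration curve.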

CYP1A2 = target: T1, CYP1A2 (Homo sapiens, UniProt P05177); experiment: Cytochrome P450 inhibition in human liver microsomes
T1 sequence (P05177 1-516): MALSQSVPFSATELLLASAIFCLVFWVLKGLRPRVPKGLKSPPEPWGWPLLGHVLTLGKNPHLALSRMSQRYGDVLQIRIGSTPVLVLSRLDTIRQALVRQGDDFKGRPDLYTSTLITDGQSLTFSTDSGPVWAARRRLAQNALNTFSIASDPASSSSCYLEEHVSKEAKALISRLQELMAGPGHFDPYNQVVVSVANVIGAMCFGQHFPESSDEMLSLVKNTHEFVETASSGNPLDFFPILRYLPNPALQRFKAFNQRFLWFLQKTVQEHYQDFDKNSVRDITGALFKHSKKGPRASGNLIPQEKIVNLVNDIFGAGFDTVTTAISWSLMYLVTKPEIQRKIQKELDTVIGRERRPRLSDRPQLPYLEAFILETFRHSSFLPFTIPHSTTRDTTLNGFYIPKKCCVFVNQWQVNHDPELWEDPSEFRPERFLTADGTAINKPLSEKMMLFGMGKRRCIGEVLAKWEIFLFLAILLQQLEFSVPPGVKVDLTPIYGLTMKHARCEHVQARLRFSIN
Outline: (§2)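 Each compound is incubated with human liver microsomes and a probe substrate whose conversion is mediated by one CYP isoform. Reactions are then quenched with ice-cold acetonitrile, and the metabolite is determined by LC–MS.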

CYP2D6 = CYP2D6 (Homo sapiens, UniProt P10635); experiment: as above
Sequence of CYP2D6 (P10635 whole entry): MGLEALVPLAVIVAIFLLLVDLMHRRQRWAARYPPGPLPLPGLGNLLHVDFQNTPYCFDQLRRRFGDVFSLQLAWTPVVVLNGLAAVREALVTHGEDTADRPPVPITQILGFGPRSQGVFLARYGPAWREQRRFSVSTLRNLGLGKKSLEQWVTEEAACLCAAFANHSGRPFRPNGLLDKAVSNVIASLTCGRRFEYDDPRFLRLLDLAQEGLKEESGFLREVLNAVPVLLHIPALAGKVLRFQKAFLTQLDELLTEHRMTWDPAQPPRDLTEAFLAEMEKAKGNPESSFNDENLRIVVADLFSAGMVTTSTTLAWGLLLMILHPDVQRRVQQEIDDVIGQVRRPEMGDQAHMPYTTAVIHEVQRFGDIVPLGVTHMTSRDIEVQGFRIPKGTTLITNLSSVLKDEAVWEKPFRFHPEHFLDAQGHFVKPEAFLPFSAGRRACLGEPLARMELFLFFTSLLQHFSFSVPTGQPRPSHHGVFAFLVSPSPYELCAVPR
Outline: as §2

human plasma = conditions: methods UF, ED, EP or not described per compound, ref [6]–[22] of Additional file 1; cited from earlier work
Caco-2 cell monolayers = experiment: Bidirectional permeability across Caco-2 cell monolayers
Outline: as §1

[5] = matrix: human plasma, corrected for fu
[6] = Caco-2, pH 7.4, A–B Papp, matrix: pH 7.4 buffer

| Compound | pKa ([1]; basic pKa (B)) | solubility [3] [µg/mL] | An (absorption number) [3] | SLAD ([3]; Ssi × V (500 mL) × Mp) [mg] | Permeability classification [3] | Predicted human Peff [3] | fraction unbound at […] [4] | IC50 (CYP1A2) [µM] | IC50 (CYP2D6) [µM] | Literature fu (human plasma) | CYP1A2 % inhibition at max conc (CYP1A2; microsomes) | Ki (CYP2D6) [µM] | Papp B→A ([2]; Caco-2, pH 7.4) [×10⁻⁶ cm/s] | A–B Papp (Caco-2 cell monolayers; matrix: pH 7.4 buffer) | also measured |
| --- | --- | --- | --- | --- | --- | --- | --- | --- | --- | --- | --- | --- | --- | --- | --- |
| COc1cc(C)c2c(Oc3cccc(C(F)(F)F)c3)c(OC)cc(NC(C)CCCN)c2n1 (centres unmarked) [Tafenoquine] | 8.7 ± 0.09 | 15.8 (≈ 34.1 µM) | 13 | 105 | High (> 85% absorption (high)) | 11 10^−4 cm/s | 0.002 ± 0.0003 | > 20 | > 20 | < 0.005 |  |  |  |  | Papp A→B ([2]; Caco-2, A–B Papp, matrix: human plasma, corrected for fu): > 300 ×10⁻⁶ cm/s; inhibition at 20 µM (CYP1A2; human, microsomes, pH 7.4): 20%; inhibition at 20 µM (CYP2D6; human, microsomes, pH 7.4): 35% |
| CCNCc1cc(Nc2ccnc3cc(Cl)ccc23)ccc1O [Desethylamodiaquine] | 8.5 ± 0.05 |  |  |  |  |  |  | > 18 | 2.6 | 0.18 | nmi | 1.6 |  |  |  |
| OC(c1cc(C(F)(F)F)nc2c(C(F)(F)F)cccc12)C1CCCCN1 (centres unmarked) [Mefloquine] | 8.5 ± 0.04 | 584 (≈ 1540 µM) |  |  | High (> 85% absorption (high)) |  | 0.05 ± 0.006 |  |  | 0.02 | nmi |  |  |  |  |
| CCN(CC)CCCNc1ccnc2cc(Cl)ccc12.Cl.Cl [AQ-13] |  |  | 2.2 |  | High (> 85% absorption (high)) | 1.9 10^−4 cm/s |  |  |  | 0.45 | nmi |  |  |  | Measured pKa ([1]; basic pKa (B)): 7.6 ± 0.2 (B); A–B Papp (Caco-2 cell monolayers; [5]): 25 ± 2.3 10^−6 cm/s; B–A Papp (Caco-2 cell monolayers; [5]): 32 ± 0.8 10^−6 cm/s; efflux ratio (Caco-2 cell monolayers; matrix: human plasma, mean B–A/A–B Papp): 1.2; SLAD [3]: > 2250 mg; Ssi (estimated solubility in the small intestine) [3]: > 2000 µg/mL; IC50 (CYP1A2; microsomes): > 20 µM; IC50 (CYP2D6; microsomes): 13 µM; Ki (CYP2D6; microsomes): 8.3 µM |
| C[C@H]1[C@H](N2CCS(=O)(=O)CC2)O[C@@H]2O[C@@]3(C)CC[C@H]4[C@H](C)CC[C@@H]1[C@@]24OO3 [Artemisone] |  | 115 (≈ 286 µM) | 6.0 | 345 | High (> 85% absorption (high)) | 5.0 10^−4 cm/s | 0.44 ± 0.024 |  |  |  |  |  | 47 ± 1.7 | 64.5 10^−6 cm/s | Measured pKa ([1]; basic pKa (B)): no ionizations could be detected; efflux ratio ([2]; Caco-2, pH 7.4): 0.8; Papp A→B [2, 6]: 58.8 ×10⁻⁶ cm/s |
| CC1(C)N=C(N)N=C(N)N1c1ccc(Cl)cc1 [Cycloguanil] | 11.4 ± 0.3 |  |  |  |  |  | 0.72 ± 0.083 | > 20 | 6 |  | nmi | 3.7 | 0.77 ± 0.05 | 1.2 ± 0.070 10^−6 cm/s | A–B Papp (Caco-2 cell monolayers; matrix: pH 7.4 buffer, listed as cycloguanil): < 5 10^−6 cm/s |
| CC(C)(C)NCc1cc(C(C)(C)C)cc(-c2cnc(C(F)(F)F)c(F)c2)c1O [JPC3210] |  |  | 13 |  | High (> 85% absorption (high)) | 11 10^−4 cm/s |  |  |  | 0.024 | nmi |  |  |  | Measured pKa ([1]; acidic pKa (A)): 5.3 ± 0.04 (A); A–B Papp (Caco-2 cell monolayers; [5]): > 300 10^−6 cm/s; B–A Papp (Caco-2 cell monolayers; [5]): > 300 10^−6 cm/s; SLAD [3]: 51 mg; Ssi (estimated solubility in the small intestine) [3]: 7.60 µg/mL; IC50 (CYP1A2; microsomes): > 20 µM; IC50 (CYP2D6; microsomes): 0.7 µM; Ki (CYP2D6; microsomes): 0.43 µM |
| N#Cc1cc(NC(=O)[C@H]2c3ccccc3C(=O)N(CC(F)(F)F)[C@@H]2c2cccnc2)ccc1F [SJ733] | 4.1 ± 0.03 | 101 (≈ 216 µM) | 2.2 | 109 | High (> 85% absorption (high)) | 1.8 10^−4 cm/s | 0.58 ± 0.069 | > 20 | 16 |  | nmi | 9.6 | 50 ± 2 | 13.4 10^−6 cm/s | Papp A→B [2, 6]: 14 ×10⁻⁶ cm/s |
